In patent EP1247528A1, “Pharmaceutical or cosmetic compositions containing extracts from Arachis hypogaea L” (Cognis France S.A., priority 2001, dated 2002):

Key:
[1] = Electron spin resonance spectroscopy (ESR), radical scavenging with spin trap DMPO; conditions: 5 mM solution (comparison)
Excerpt: Die Methode der Elektronenspinresonanz Spektroskopie beruht auf dem Prinzip der Generierung kurzlebiger Radikale über chemische Radikalgeneratoren, der Stabilisierung und Akkumulierung der Radikale mittels Radikalfänger (Spin-Trapper-Substanzen) und der Detektion der für die einzelnen Radikale typischen ESR-Spektren. Die radikalfangenden Eigenschaften der zu untersuchenden Substanzen werden durch die Abnahme der Signalintensitäten der getrappten Radikale charakterisiert. Im vorliegenden Fall wurde als Radikal Fänger (Spin Trapper) DMPO (5,5-Dimethyl-1-pyrrolin-N-oxid) verwendet. Die Signalintensität des mit Hilfe des DMPO gebildeten stabilen DMPO-Hydroxyadduktes wurde 100 % gesetzt. Die Abnahme dieses Signals in Abhängigkeit von der Konzentration des eingesetzten Pflanzenextraktes, ist ein Nachweis für die Radikal fangenden Eigenschaften der Extrakte.
Der Extrakt aus Beispiel 1 wurde mittels der ESR Spektroskopie untersucht. Bereits in einer Konzentration von 0,01 Gew.-% führte dieser Extrakt zu einer Abnahme des DMPO-Hydroxyaddukt Signals um 79 % auf ein Restsignal von 21 %. Bei einer Konzentration von 0,05 % zeigte sich eine Abnahme des Signals um 89 % und bei einer Konzentration von 0,5 % fand eine völlige Löschung des Signals statt. Als Vergleich diente eine 5 mM α-Tocopherol Lösung, die eine Abnahme des Signals um 65 % bewirkte.

[2] = target: Xanthin Oxidase; assay: Luminol + Microperoxydase test (xanthine oxidase system); assay type: biochemical
Excerpt: (§1) Die optische Dichte des Extraktes lag bei 513 nm. Als erstes Testsubstrat wurde Diphenylpicrylhydrazyl (DPPH) gewählt, ein purpurrot gefärbtes stabiles Radikal, welches durch Inkontaktbringen mit Radikalfängern in sein ungefärbtes Leucoderivat übergeht. Der Farbwechsel kann photometrisch verfolgt werden. Die Meßergebnisse sind in Tabelle 2 zusammengefaßt ("DPPH-Test").. In einem weiteren Test wurde Xanthin Oxidase als Testsystem gewählt. Das Enzym bewirkt bei oxidativem Stress die Umwandlung von Purinbasen, wie z.B. Adenin oder Guanin in […], wobei die intermediär gebildeten Sauerstoffradikale durch Reaktion mit Luminol über die Lumineszenz nachgewiesen und quantitativ bestimmt werden können. In Gegenwart von Substanzen mit radikalfangenden Eigenschaften vermindert sich die Lumineszenzausbeute. Der NBT-Wert bestimmt den Gehalt von […], welches aus NBT durch das Sauerstoffradikal gebildet wird. Die optische Dichte wurde bei 540 nm bestimmt.
(§2) Diese Ergebnisse sind in Tabelle 3 zusammengefaßt; wieder ist die Inhibierung in %-absolut angegeben ("Luminol-Test"). Tab.

[3] = DPPH-Test (chemical test, activity against free radicals)
Excerpt: as §1

[4] = target: Xanthin Oxidase; assay: Luminol-Test (xanthine oxidase system, luminescence); assay type: biochemical
Excerpt: as §1, §2

[5] = target: Xanthin Oxidase; assay: NBT test (xanthine oxidase system, optical density at 540 nm); assay type: biochemical
Excerpt: as §1, §2

[6] = Antioxidative capacity: inhibition of lipid peroxidation in liposomes (AOP50); assay type: biochemical; conditions: concentration at which lipid peroxidation is reduced by 50 %; Fe(II) ascorbate, 37 °C, 45 min, MDA-thiobarbituric acid at 532 nm
Description: Als Maß für die antioxidative Kapazität der Erdnusshäutchen Extrakte wurde ihre Fähigkeit bestimmt, die Lipidperoxidation in Liposomen zu verhindern. Dazu wurde eine 0,2 Gew.-%ige Liposomen Suspension aus Sojalecithin in Phosphatpuffer hergestellt. Die Lipidperoxidation wurde durch Zugabe eines Eisen(II)ascorbat Komplexes (10mM Fe(II)SO4, 50 mM Ascorbat) initiiert. Die Inkubation wurde bei 37 °C für 45 min. durchgeführt. Als Endprodukt der Lipidperoxidation entsteht Malondialdeyd, welches über eine Farbreaktion mit Thiobarbitursäure quantifiziert wird (photometrische Bestimming des Malondialdehyd-Thiobarbitursäure Komplexes bei 532 nm). Zur Bestimmung der antioxidativen Kapazität der Erdnusshäutchen Extrakte wurden diese in unterschiedlichen Konzentration vor der Zugabe des Eisen(II)ascorbat Komplexes zum Inkubationsansatz gegeben. Ermittelt wurde die Konzentration an Pflanzenextrakt (in µg/ml), bei der die Lipidperoxidation um 50 % verringert ist (= AOP50) im Vergleich zur Bestimmung ohne Zusatz an Pflanzenextrakt. D.h. je geringer die angegebene Konzentration AOP50, desto höher ist die antioxidative Kapazität des untersuchten Erdnussextraktes. Als Referenzsubstanz diente das Antioxidans n-Propylgallat. Tab.

[7] = test system: menschlichen Keratinozyten; assay: Cell protection against UVB on human keratinocytes cultured in vitro; assay type: cell-based; conditions: UVB 50 mJ/cm^2; 0,03 % test substance
Description: Methode: Der Effekt von UVB-Strahlung wurde an Keratinocyten in vitro untersucht indem die Freisetzung des Cytoplasaenzyms LDH (Lactat Dehydrogenase) bestimmt wurde. Dieses Enzym dient als Marker für eine Zellschädigung.
Zur Durchführung der Tests wurde ein definiertes Medium, das fötales Kälberserum enthält, mit den Keratinozyten beimpft und der Pflanzenextrakt (mit Saline-Lösung verdünnt) 72 Stunden nach dem Beimpfen zugegeben. […]
Nach weiterer 1 tägiger Inkubation bei 37 °C und bei 5 % CO2 wurde der LDH-Gehalt im Überstand bestimmt. Der Gehalt von LDH- (Lactatdehydrogenase) wurde mittels einer Enzymreaktion bestimmt (verwendetes Kit zur Untersuchung des LDH Gehaltes von der Firma Roche). Die Anzahl adhärenter Keratinozyten wird (nach Trypsinbehandlung) mit einem Partikelzählgerät bestimmt. Tab.

[8] = test system: humanen Fibroblasten; assay: Cell protection against UVA on human fibroblasts cultured in vitro; assay type: cell-based; conditions: UVA 20 J/cm^2; 0,0003 % test substance
Description: Methode: Zur Durchführung dieser Tests wurde ein definiertes Kulturmedium mit den Fibroblasten mit fötalem Kälberserum beimpft und der Pflanzenextrakt (in dem definierten Medium mit 10 % Fötalem Kälberserum) 72 Stunden nach dem Beimpfen zugegeben.
Nach 48 stündiger Inkubation bei 37 °C und einem CO2-Gehalt von 5 % wurde das Kulturmedium durch Saline-Lösung (physiologische NaCI-Lösung) ersetzt und die Fibroblasten wurden mit einer UVA-Dosis bestrahlt (365 nm, 20 J/cm^2; Röhren: MAZDA FLUOR TFWN40).
Nach der Beendigung der Bestrahlung wurde der MDA-Spiegel (Malonaldialdehyd-Spiegel) in der überstehenden Natriumchlorid-Lösung quantitativ durch Reaktion mit Thiobarbitursäure bestimmt.
Außerdem wurde der Gehalt an Proteinen nach der Methode von Bradford bestimmt und der Gehalt an GSH untersucht wobei es sich um reduziertes Glutathion handelt. Der Gehalt an GSH wurde bstimmt nach der Methode von Hissin (Hissin PJ, Hilf R., A fluorometric method for determination of oxydised and reduced glutathione tissues, Anal. Biochem. 74, 214-226, 1976). Tab.

EC50 in % Luminol + Microperoxydase [2] | EC50 in % DPPH-Test [3] | EC50 in % Luminol [4] | EC50 in % NBT [5] | Molecule | also measured
– | – | – | – | Cc1c(C)c2c(c(C)c1O)CC[C@@](C)(CCC[C@H](C)CCC[C@H](C)CCCC(C)C)O2 [α-Tocopherol] | Abnahme des Signals [1]: 65%
0,0058% | 0,0013% | 0,0006% | 0,5909% | O=C1O[C@H]([C@@H](O)CO)C(O)=C1O [Ascorbinsäure] | –
– | – | – | – | CCCOC(=O)c1cc(O)c(O)c(O)c1 [n-Propylgallat] | AOP50 [6]: 2,9 µg/ml
– | – | – | – | CC(=O)Oc1ccccc1C(=O)O [Aspirin] | Anzahl Keratinocyten [7]: 52 % im Vergleich zur Kontrolle; Gehalt an LDH [7]: 46 % im Vergleich zur Kontrolle; Gehalt an PGE2 [7]: 4 % im Vergleich zur Kontrolle
Kein Effekt bis zu 1% | 0,0067% | Kein Effekt bis zu 1% | Kein Effekt bis zu 1% | Tocopherol | Freigesetzter MDA [8]: 19 % im Vergleich zur Kontrolle; GSH/Protein [8]: 77 % im Vergleich zur Kontrolle; Zellproteine [8]: 95 % im Vergleich zur Kontrolle
